Source: the NIST ThermoML archive (doi:10.1016/j.jct.2014.01.030)

Test: xn = mol fraction of the nth substance listed
Details: 101 kPa, Liquid; for speed of sound: Sing-around technique in a fixed-path interferometer; for mass density: Vibrating tube method

CCn1cc[n+](C)c1.COS(=O)(=O)[O-] [1-ethyl-3-methylimidazolium methylsulfate] + CC(C)O
Details | mass density, 288.15 K [kg/m3] | mass density, 298.15 K [kg/m3] | mass density, 308.15 K [kg/m3] | speed of sound, 288.15 K [m/s] | speed of sound, 298.15 K [m/s] | speed of sound, 308.15 K [m/s]
x2 = 0 | 1287.57 | 1280.81 | 1273.97 | 1781 | 1756 | 1732
x2 = 0.049 | 1277.61 | 1270.72 | 1263.87 | 1766 | 1741 | 1717
x2 = 0.101 | 1266.36 | 1259.44 | 1252.56 | 1749 | 1724 | 1700
x2 = 0.205 | 1240.88 | 1233.92 | 1227.01 | 1708 | 1683 | 1658
x2 = 0.307 | 1212.09 | 1205.09 | 1198.13 | 1659 | 1634 | 1609
x2 = 0.388 | 1185.23 | 1178.18 | 1171.15 | 1614 | 1588 | 1564
x2 = 0.505 | 1140.35 | 1133.21 | 1126.08 | 1541 | 1515 | 1490
x2 = 0.611 | 1091.15 | 1083.89 | 1076.62 | 1469 | 1443 | 1416
x2 = 0.705 | 1039.05 | 1031.61 | 1024.15 | 1402 | 1375 | 1348
x2 = 0.805 | 972.17 | 964.55 | 956.84 | 1326 | 1298 | 1269
x2 = 0.902 | 891.92 | 884.06 | 876.06 | 1252 | 1221 | 1190
x2 = 0.953 | 842.51 | 834.48 | 826.24 | 1214 | 1181 | 1148

CCn1cc[n+](C)c1.COS(=O)(=O)[O-] [1-ethyl-3-methylimidazolium methylsulfate] + CCC(C)O
Details | mass density, 288.15 K [kg/m3] | mass density, 298.15 K [kg/m3] | mass density, 308.15 K [kg/m3] | speed of sound, 288.15 K [m/s] | speed of sound, 298.15 K [m/s] | speed of sound, 308.15 K [m/s]
x2 = 0 | 1287.57 | 1280.81 | 1273.97 | 1781 | 1756 | 1732
x2 = 0.054 | 1274.82 | 1267.9 | 1261.04 | 1762 | 1738 | 1714
x2 = 0.106 | 1261.26 | 1254.37 | 1247.52 | 1743 | 1718 | 1693
x2 = 0.204 | 1233.86 | 1226.94 | 1220.05 | 1698 | 1673 | 1649
x2 = 0.306 | 1201.1 | 1194.21 | 1187.37 | 1644 | 1619 | 1594
x2 = 0.405 | 1165.21 | 1158.22 | 1151.25 | 1587 | 1562 | 1536
x2 = 0.507 | 1122.93 | 1115.87 | 1108.83 | 1527 | 1501 | 1475
x2 = 0.608 | 1075.89 | 1068.69 | 1061.49 | 1467 | 1440 | 1414
x2 = 0.713 | 1019.51 | 1012.15 | 1004.76 | 1406 | 1378 | 1350
x2 = 0.801 | 964.94 | 957.44 | 949.85 | 1356 | 1326 | 1297
x2 = 0.905 | 890.81 | 883.1 | 875.21 | 1299 | 1267 | 1235
x2 = 0.948 | 856.61 | 848.81 | 840.73 | 1277 | 1244 | 1210
